Measurements reported in the NIST ThermoML archive (doi:10.1016/j.jct.2010.06.012).
Where “and” joins values, the source holds several entries; their conditions need not be identical. Equal values may be shown once.

Conditions: Crystal, Calculated from knudsen effusion weight loss

Clc1ccc(-n2cccc2)cc1 [1-(4-chlorophenyl)-1H-pyrrole]
Conditions | vapor or sublimation pressure
295.22 K | 0.000183 kPa and 0.000176 kPa and 0.000175 kPa
297.17 K | 0.000227 kPa and 0.00022 kPa and 0.000219 kPa
299.22 K | 0.000289 kPa and 0.000279 kPa and 0.000275 kPa
301.12 K | 0.000363 kPa and 0.000364 kPa and 0.000378 kPa
303.17 K | 0.000467 kPa and 0.000463 kPa and 0.000451 kPa
305.21 K | 0.000595 kPa and 0.000571 kPa and 0.000558 kPa
307.1 K | 0.000744 kPa and 0.000715 kPa and 0.000706 kPa
309.12 K | 0.000904 kPa and 0.000892 kPa and 0.000871 kPa
311.22 K | 0.001132 kPa and 0.001115 kPa and 0.001084 kPa

Ic1ccc(-n2cccc2)cc1 [1-(4-iodophenyl)pyrrole]
Conditions | vapor or sublimation pressure
319.11 K | 0.000107 kPa and 0.000112 kPa and 0.000109 kPa
321.19 K | 0.000142 kPa and 0.00014 kPa and 0.000137 kPa
323.18 K | 0.000174 kPa and 0.000169 kPa
325.12 K | 0.000218 kPa and 0.000216 kPa and 0.00021 kPa
327.19 K | 0.000274 kPa and 0.00027 kPa and 0.000265 kPa
329.18 K | 0.000336 kPa and 0.000331 kPa and 0.000329 kPa
331.11 K | 0.000402 kPa and 0.000421 kPa and 0.000416 kPa
333.17 K | 0.00052 kPa and 0.000522 kPa and 0.000508 kPa
335.17 K | 0.000639 kPa and 0.000628 kPa and 0.000624 kPa
337.12 K | 0.000778 kPa and 0.000814 kPa and 0.000806 kPa
339.19 K | 0.001022 kPa and 0.001014 kPa and 0.000977 kPa
341.17 K | 0.001237 kPa and 0.001212 kPa and 0.001211 kPa

Fc1ccc(-n2cccc2)cc1 [1-(4-fluorophenyl)pyrrole]
Conditions | vapor or sublimation pressure
271.14 K | 0.000157 kPa and 0.000149 kPa and 0.000152 kPa
273.16 K | 0.0002 kPa and 0.000197 kPa
275.2 K | 0.000237 kPa and 0.000236 kPa
277.18 K | 0.000303 kPa and 0.000288 kPa and 0.000313 kPa
279.18 K | 0.000396 kPa and 0.000393 kPa and 0.000391 kPa
281.18 K | 0.000509 kPa and 0.000505 kPa and 0.000497 kPa
283.12 K | 0.000688 kPa and 0.000694 kPa and 0.00068 kPa
285.13 K | 0.000863 kPa and 0.000854 kPa and 0.000832 kPa
287.17 K | 0.001072 kPa and 0.001068 kPa and 0.001064 kPa
